# From patent publication US20260209217A1, “CRYSTALLINE FORMS OF (S)-5-((3-(4-(4-FLUOROPHENYL)-1H-IMIDAZOL-2-YL)CHROMAN-6-YL)OXY)-3,4-DIHYDRO-1,8-NAPHTHYRIDIN-2(1H)-ONE” (Jazz Pharmaceuticals Ireland Limited, priority 2022, published 2026)
# “Also recorded” adds a separate entry of the source.
# What was measured:
# Assay type in all cases: physicochemical
# [1] = Solubility / in vitro dissolution in biorelevant media
# Protocol: In vitro dissolution profiles were analyzed for Form A and Form F. In vitro drug dissolution and release testing can provide insight into a drug's in vivo performance such as bioavailability.
# Because Forms A and F were selected for further pharmaceutical development, dissolution tests were performed on these forms. The tests were performed at different pH and in biorelevant media: hydrochloric acid (HCl), fasted state simulated gastric fluid (FaSSGF), fasted state simulated intestinal fluid (FaSSIF), and fed state simulated intestinal fluid (FeSSIF) (75 rpm, 900 mL). Three 10 mg and 50 mg capsules were analyzed as shown below in Table 18. The capsules include those including only Form A, 90% Form A spiked with 10% of Form F, and Form F. The results are shown in FIGS. 14A-14C (10 mg capsules) and FIGS. 15A-15C (50 mg capsules).
# [2] = Dynamic vapor sorption (DVS) isotherm analysis
# Protocol: Approximately 10 mg of material was analyzed using an automated dynamic vapor sorption analyzer (Intrinsic/Advantage) at 25° C. Method 1 for anhydrate undergo humidity cycle of 40-0-95-0-40% RH with stage step of 10% RH during which mass change was recorded. Method 2 for hydrate undergo humidity cycle of 40-95-0-95-40% RH with stage step of 10% RH during which mass change we recorded. Equilibrium set up was 0.002 dm/dt (%/min). Minimum dm/dt stability during in 60 min and maximum dm/dt stability duration is 360 min.
# [3] = Stability of crystalline forms as evidenced by DSC and TGA thermograms; conditions: relative to the other crystalline forms
# Protocol: Approximately 1-2 mg of material was weighed into an aluminum DSC pan with a pin hold. The sample pan then placed on Differential Scanning Calorimetry (TA Discovery 2500) with protected nitrogen flow rate of 50 mL/min. The sample was heated at rate of 10° C./min from 30° C. to 250° C. during which heat flow was recorded.
# Approximately 2 mg of material was weighed into an open aluminum pan and loaded into a simultaneous thermogravimetric/differential thermal analyzer (TG Discovery 5500) and held at room temperature. Nitrogen flow rate for balance was 10 mL/min and nitrogen flow rate for sample was 25 mL/min. The sample was then heated at a rate of 10° C./min from 30° C. to 300° C. during which time the change in sample weight was recorded.
# [4] = DVS Cycle 1, target 40.0 % P/Po, 24.8° C.
# [5] = DVS Cycle 1, target 50.0 % P/Po, 24.8° C.
# [6] = DVS Cycle 1, target 60.0 % P/Po, 24.8° C.
# [7] = DVS Cycle 1, target 70.0 % P/Po, 24.8° C.
# [8] = DVS Cycle 1, target 80.0 % P/Po, 24.8° C.
# [9] = DVS Cycle 1, target 90.0 % P/Po, 24.8° C.
# [10] = DVS Cycle 1, target 95.0 % P/Po, 24.8° C.
# [11] = DVS Cycle 2, target 40.0 % P/Po, 24.8° C.
# [12] = DVS Cycle 2, target 50.0 % P/Po, 24.8° C.
# [13] = DVS Cycle 2, target 60.0 % P/Po, 24.8° C.
# [14] = DVS Cycle 2, target 70.0 % P/Po, 24.8° C.
# [15] = DVS Cycle 2, target 80.0 % P/Po, 24.8° C.
# [16] = DVS Cycle 2, target 90.0 % P/Po, 24.8° C.
# [17] = DVS Cycle 2, target 95.0 % P/Po, 24.8° C.
# [18] = DVS Cycle 1, target 0.0 % P/Po, 24.9° C.
# [19] = DVS Cycle 1, target 10.0 % P/Po, 24.9° C.
# [20] = DVS Cycle 1, target 20.0 % P/Po, 24.9° C.
# [21] = DVS Cycle 1, target 30.0 % P/Po, 24.9° C.
# [22] = DVS Cycle 1, target 40.0 % P/Po, 24.9° C.
# [23] = DVS Cycle 2, target 0.0 % P/Po, 24.9° C.
# [24] = DVS Cycle 2, target 10.0 % P/Po, 24.9° C.
# [25] = DVS Cycle 2, target 20.0 % P/Po, 24.9° C.
# [26] = DVS Cycle 2, target 30.0 % P/Po, 24.9° C.
# [27] = DVS Cycle 2, target 40.0 % P/Po, 24.9° C.
smiles,measurement,setting,value
"O=C1CCc2c(Oc3ccc4c(c3)C[C@@H](c3nc(-c5ccc(F)cc5)c[nH]3)CO4)ccnc2N1 [Compound I, (S)-5-((3-(4-(4-fluorophenyl)-1H-imidazol-2-yl)chroman-6-yl)oxy)-3,4-dihydro-1,8-naphthyridin-2(1H)-one]",solubility,[1],poorly soluble
"O=C1CCc2c(Oc3ccc4c(c3)C[C@@H](c3nc(-c5ccc(F)cc5)c[nH]3)CO4)ccnc2N1 [Form A, (S)-5-((3-(4-(4-fluorophenyl)-1H-imidazol-2-yl)chroman-6-yl)oxy)-3,4-dihydro-1,8-naphthyridin-2(1H)-one]","Change In Mass (%) - ref, Desorption","[2]; DVS Cycle 1, target 0.0 % P/Po, 24.8° C.",0.002%
same,"Change In Mass (%) - ref, Desorption","[2]; DVS Cycle 1, target 10.0 % P/Po, 24.8° C.",0.350%
same,"Change In Mass (%) - ref, Desorption","[2]; DVS Cycle 1, target 20.0 % P/Po, 24.8° C.",0.941%
same,"Change In Mass (%) - ref, Desorption","[2]; DVS Cycle 1, target 30.0 % P/Po, 24.8° C.",3.649%
same,"Change In Mass (%) - ref, Desorption",[2]; [4],4.700%
same,"Change In Mass (%) - ref, Hysteresis",[2]; [4],0.077%
same,"Change In Mass (%) - ref, Sorption",[2]; [4],4.623%
same,"Change In Mass (%) - ref, Desorption",[2]; [5],5.395%
same,"Change In Mass (%) - ref, Hysteresis",[2]; [5],0.283%
same,"Change In Mass (%) - ref, Sorption",[2]; [5],5.112%
same,"Change In Mass (%) - ref, Desorption",[2]; [6],5.814%
same,"Change In Mass (%) - ref, Hysteresis",[2]; [6],0.339%
same,"Change In Mass (%) - ref, Sorption",[2]; [6],5.475%
same,"Change In Mass (%) - ref, Desorption",[2]; [7],6.213%
same,"Change In Mass (%) - ref, Hysteresis",[2]; [7],0.368%
same,"Change In Mass (%) - ref, Sorption",[2]; [7],5.845%
same,"Change In Mass (%) - ref, Desorption",[2]; [8],6.535%
same,"Change In Mass (%) - ref, Hysteresis",[2]; [8],0.341%
same,"Change In Mass (%) - ref, Sorption",[2]; [8],6.194%
same,"Change In Mass (%) - ref, Desorption",[2]; [9],6.824%
same,"Change In Mass (%) - ref, Hysteresis",[2]; [9],0.230%
same,"Change In Mass (%) - ref, Sorption",[2]; [9],6.594%
same,"Change In Mass (%) - ref, Desorption",[2]; [10],6.838%
same,"Change In Mass (%) - ref, Sorption",[2]; [10],6.838%
same,"Change In Mass (%) - ref, Sorption","[2]; DVS Cycle 2, target 0.0 % P/Po, 24.8° C.",0.002%
same,"Change In Mass (%) - ref, Sorption","[2]; DVS Cycle 2, target 10.0 % P/Po, 24.8° C.",0.312%
same,"Change In Mass (%) - ref, Sorption","[2]; DVS Cycle 2, target 20.0 % P/Po, 24.8° C.",0.853%
same,"Change In Mass (%) - ref, Sorption","[2]; DVS Cycle 2, target 30.0 % P/Po, 24.8° C.",3.253%
same,"Change In Mass (%) - ref, Desorption",[2]; [11],4.601%
same,"Change In Mass (%) - ref, Hysteresis",[2]; [11],0.375%
same,"Change In Mass (%) - ref, Sorption",[2]; [11],4.225%
same,"Change In Mass (%) - ref, Desorption",[2]; [12],5.295%
same,"Change In Mass (%) - ref, Hysteresis",[2]; [12],0.495%
same,"Change In Mass (%) - ref, Sorption",[2]; [12],4.800%
same,"Change In Mass (%) - ref, Desorption",[2]; [13],5.715%
same,"Change In Mass (%) - ref, Hysteresis",[2]; [13],0.466%
same,"Change In Mass (%) - ref, Sorption",[2]; [13],5.248%
same,"Change In Mass (%) - ref, Desorption",[2]; [14],6.129%
same,"Change In Mass (%) - ref, Hysteresis",[2]; [14],0.423%
same,"Change In Mass (%) - ref, Sorption",[2]; [14],5.706%
same,"Change In Mass (%) - ref, Desorption",[2]; [15],6.446%
same,"Change In Mass (%) - ref, Hysteresis",[2]; [15],0.324%
same,"Change In Mass (%) - ref, Sorption",[2]; [15],6.122%
same,"Change In Mass (%) - ref, Desorption",[2]; [16],6.737%
same,"Change In Mass (%) - ref, Hysteresis",[2]; [16],0.201%
same,"Change In Mass (%) - ref, Sorption",[2]; [16],6.536%
same,"Change In Mass (%) - ref, Desorption",[2]; [17],6.745%
same,"Change In Mass (%) - ref, Sorption",[2]; [17],6.745%
same,stability of the crystalline form,[3],high degree of crystallinity and stability; also recorded: increased stability
"O=C1CCc2c(Oc3ccc4c(c3)C[C@@H](c3nc(-c5ccc(F)cc5)c[nH]3)CO4)ccnc2N1 [Form F, (S)-5-((3-(4-(4-fluorophenyl)-1H-imidazol-2-yl)chroman-6-yl)oxy)-3,4-dihydro-1,8-naphthyridin-2(1H)-one]","Change In Mass (%) - ref, Desorption",[2]; [18],0.006%
same,"Change In Mass (%) - ref, Sorption",[2]; [18],0.006%
same,"Change In Mass (%) - ref, Desorption",[2]; [19],0.301%
same,"Change In Mass (%) - ref, Hysteresis",[2]; [19],0.128%
same,"Change In Mass (%) - ref, Sorption",[2]; [19],0.173%
same,"Change In Mass (%) - ref, Desorption",[2]; [20],0.458%
same,"Change In Mass (%) - ref, Hysteresis",[2]; [20],0.134%
same,"Change In Mass (%) - ref, Sorption",[2]; [20],0.324%
same,"Change In Mass (%) - ref, Desorption",[2]; [21],0.566%
same,"Change In Mass (%) - ref, Hysteresis",[2]; [21],0.111%
same,"Change In Mass (%) - ref, Sorption",[2]; [21],0.455%
same,"Change In Mass (%) - ref, Desorption",[2]; [22],0.649%
same,"Change In Mass (%) - ref, Hysteresis",[2]; [22],0.075%
same,"Change In Mass (%) - ref, Sorption",[2]; [22],0.574%
same,"Change In Mass (%) - ref, Sorption","[2]; DVS Cycle 1, target 50.0 % P/Po, 24.9° C.",0.690%
same,"Change In Mass (%) - ref, Sorption","[2]; DVS Cycle 1, target 60.0 % P/Po, 24.9° C.",0.813%
same,"Change In Mass (%) - ref, Sorption","[2]; DVS Cycle 1, target 70.0 % P/Po, 24.9° C.",0.964%
same,"Change In Mass (%) - ref, Sorption","[2]; DVS Cycle 1, target 80.0 % P/Po, 24.9° C.",1.160%
same,"Change In Mass (%) - ref, Sorption","[2]; DVS Cycle 1, target 90.0 % P/Po, 24.9° C.",1.601%
same,"Change In Mass (%) - ref, Sorption","[2]; DVS Cycle 1, target 95.0 % P/Po, 24.9° C.",1.911%
same,"Change In Mass (%) - ref, Desorption",[2]; [23],0.156%
same,"Change In Mass (%) - ref, Sorption",[2]; [23],0.156%
same,"Change In Mass (%) - ref, Desorption",[2]; [24],0.718%
same,"Change In Mass (%) - ref, Hysteresis",[2]; [24],0.355%
same,"Change In Mass (%) - ref, Sorption",[2]; [24],0.363%
same,"Change In Mass (%) - ref, Desorption",[2]; [25],1.060%
same,"Change In Mass (%) - ref, Hysteresis",[2]; [25],0.495%
same,"Change In Mass (%) - ref, Sorption",[2]; [25],0.565%
same,"Change In Mass (%) - ref, Desorption",[2]; [26],1.291%
same,"Change In Mass (%) - ref, Hysteresis",[2]; [26],0.539%
same,"Change In Mass (%) - ref, Sorption",[2]; [26],0.752%
same,"Change In Mass (%) - ref, Desorption",[2]; [27],1.459%
same,"Change In Mass (%) - ref, Hysteresis",[2]; [27],0.532%
same,"Change In Mass (%) - ref, Sorption",[2]; [27],0.927%
same,"Change In Mass (%) - ref, Desorption","[2]; DVS Cycle 2, target 50.0 % P/Po, 24.9° C.",1.595%
same,"Change In Mass (%) - ref, Desorption","[2]; DVS Cycle 2, target 60.0 % P/Po, 24.9° C.",1.711%
same,"Change In Mass (%) - ref, Desorption","[2]; DVS Cycle 2, target 70.0 % P/Po, 24.9° C.",1.813%
same,"Change In Mass (%) - ref, Desorption","[2]; DVS Cycle 2, target 80.0 % P/Po, 24.9° C.",1.901%
same,"Change In Mass (%) - ref, Desorption","[2]; DVS Cycle 2, target 90.0 % P/Po, 24.9° C.",1.964%
same,"Change In Mass (%) - ref, Desorption","[2]; DVS Cycle 2, target 95.0 % P/Po, 24.9° C.",1.911%
same,stability of the crystalline form,[3],high degree of crystallinity and stability; also recorded: increased stability
